We go through 17 molecules from patent US20240350643A1, “PROTEIN DEGRADATION AGENT” (SUZHOU KINTOR PHARMACEUTICALS, INC., priority 2021, published 2024).

The test system of assay [1] is HL60 cells. The experiment in a line: Anti-proliferation ability of compounds on HL60 cells (CTG). Format: cell-based, human. Conditions: Homo sapiens, HL-60, 72 h, 3 days, CellTiter-Glo, read-out: HL60 cells Proliferation inhibitory activity. A digest of the protocol: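 HL60 cells (20000/well) exposed to serially diluted compounds (0.1% DMSO vehicle control) for 3 days. Viability read by CellTiter-Glo luminescence; IC50 fitted from inhibition rates.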
In general terms: ATP-based viability assays read luminescence as a measure of living cells.

For assay [2], the target named is T1, c-Myc protein (Homo sapiens, UniProt P01106).
T1 construct: endogenous in cells; host or cells: HL60 cells
The experiment in a line: Ability of compounds to degrade c-Myc protein in HL60 cells (ELISA). The assay is classed as cell-based. Particulars: HL-60, 1 μM compound, 24 h, read-out: HL60 cells Protein degradation rate (1 μM).

Each structure is given as a SMILES string.

T1 sequence (P01106 whole entry): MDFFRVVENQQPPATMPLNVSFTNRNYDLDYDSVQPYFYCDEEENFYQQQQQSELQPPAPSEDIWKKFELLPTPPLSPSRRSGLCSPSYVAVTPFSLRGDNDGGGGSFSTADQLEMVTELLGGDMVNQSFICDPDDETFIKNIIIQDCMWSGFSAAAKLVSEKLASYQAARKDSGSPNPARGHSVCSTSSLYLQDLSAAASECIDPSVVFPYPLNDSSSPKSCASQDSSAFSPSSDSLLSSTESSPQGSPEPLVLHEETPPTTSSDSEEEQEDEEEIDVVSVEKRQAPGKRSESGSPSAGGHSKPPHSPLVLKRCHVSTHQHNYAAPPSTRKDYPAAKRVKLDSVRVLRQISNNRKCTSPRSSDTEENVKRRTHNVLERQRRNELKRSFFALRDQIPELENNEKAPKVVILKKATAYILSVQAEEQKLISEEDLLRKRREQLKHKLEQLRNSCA

`O=C(Cc1cccc2ccccc12)NCc1ccc(COCc2ccc3c(c2)C(=O)N(C2CCC(=O)NC2=O)C3=O)cc1` (stereo not shown) [A191]: the IC50 in assay [1] was 16.9 ± 2.2 nM. Also, the inhibition at 1 µM in assay [2] lay within 60 to 90%.

Take `O=C(Cn1c2ccccc2c2cccnc21)NCc1ccc(COCc2ccc3c(c2)C(=O)N(C2CCC(=O)NC2=O)C3=O)cc1` (stereo not shown) [A192]: the IC50 in assay [1] is 7.7 ± 2.1 nM. Also, in assay [2], the inhibition at 1 µM was 60 to 90%.

Take `O=C(Cc1cccc2ccccc12)NCc1ccc(CNCc2ccc3c(c2)CN(C2CCC(=O)NC2=O)C3=O)cc1` (stereo not shown) [A193]: the IC50 in assay [1] amounted to 0.6 ± 0.1 nM. The inhibition at 1 µM in assay [2] fell in the range of 60 to 90%.

In the case of `O=C(Cn1c2ccccc2c2cccnc21)NCc1ccc(CNCc2ccc3c(c2)CN(C2CCC(=O)NC2=O)C3=O)cc1` (stereo not shown) [A194], the IC50 in assay [1] turned out to be 0.14 ± 0.01 nM. The inhibition at 1 µM in assay [2] fell in the range of 60 to 90%.

Regarding `O=C(Cc1c(F)ccc2ccccc12)NCc1ccc(CNCc2ccc3c(c2)CN(C2CCC(=O)NC2=O)C3=O)cc1` (stereo not shown) [A195], the IC50 in assay [1] amounted to 1.4 ± 0.01 nM. Also, the inhibition at 1 µM in assay [2] fell in the range of 60 to 90%.

As for `O=C(Cc1cccc2ccccc12)NCc1ccc(CNCc2ccc3c(c2)CN(C2CCC(=O)NC2=O)C3=O)c(F)c1` (stereo not shown) [A196], the IC50 in assay [1] worked out at 0.5 ± 0.1 nM. The inhibition at 1 µM in assay [2] is 60 to 90%.

Turning to `O=C1CCC(N2Cc3cc(NC(=O)C[C@H]4CC[C@H](NC(=O)NCc5cccc6ccccc56)CC4)ccc3C2=O)C(=O)N1` (stereo partly shown) [A199], in assay [1], the IC50 amounted to 3.3 ± 0.6 nM. In addition, the inhibition at 1 µM in assay [2] is 60 to 90%.

For `O=C(CN1CCCc2ccccc21)NCc1ccc(CNC(=O)c2ccc3c(c2)CN(C2CCC(=O)NC2=O)C3=O)cc1` (stereo not shown) [A200], the IC50 in assay [1] turned out to be 2.5 ± 1 nM. Also, the inhibition at 1 µM in assay [2] was in the range of 60 to 90%.

Consider `O=C(CN1CCCc2ccccc21)NCc1ccc(CC(=O)Nc2ccc3c(c2)CN(C2CCC(=O)NC2=O)C3=O)cc1` (stereo not shown) [A201], for which the IC50 in assay [1] was found to be 2 ± 0.9 nM. Besides, in assay [2], the inhibition at 1 µM lay in the range of 60 to 90%.

On to `O=C(CN1CCc2cccnc21)NCc1ccc(CNC(=O)c2ccc3c(c2)CN(C2CCC(=O)NC2=O)C3=O)cc1` (stereo not shown) [A203], for which, in assay [1], the IC50 was 6.6 ± 0.8 nM. Besides, the inhibition at 1 µM in assay [2] lay within 60 to 90%.

`CN(CCc1cccc2ccccc12)Cc1ccc(CC(=O)Nc2ccc3c(c2)CN(C2CCC(=O)NC2=O)C3=O)cc1` (stereo not shown) [A205]: in assay [1], the IC50 was 0.2 ± 0.1 nM. In addition, the inhibition at 1 µM in assay [2] fell in the range of 60 to 90%.

As for `O=C(Cn1c2ccccc2c2cccnc21)NCc1ccc(CNC(=O)c2ccc3c(c2)CN(C2CCC(=O)NC2=O)C3=O)cc1OC(F)(F)F` (stereo not shown) [A208], the IC50 in assay [1] was determined as 0.5 nM. For the same molecule, the inhibition at 1 µM in assay [2] was 60 to 90%.

Regarding `O=C1CCC(N2Cc3cc(C(=O)NCc4ccc(CNc5nccc(-c6cccc7ccccc67)n5)cc4)ccc3C2=O)C(=O)N1` (stereo not shown) [A220], the IC50 in assay [1] came out at 1.2 ± 0.1 nM. Further, in assay [2], the inhibition at 1 µM was in the range of 60 to 90%.

As for `O=C(Cn1c2ccccc2c2cccnc21)NCc1ccc(CNC(=O)c2ccc3c(c2)CN([C@H]2CCC(=O)NC2=O)C3=O)cc1` [A224], the IC50 in assay [1] worked out at 1.7 ± 1.3 nM. The inhibition at 1 µM in assay [2] is 60 to 90%.

For the molecule `O=C(Cn1c2ccccc2c2cccnc21)NCc1ccc(CNC(=O)c2ccc3c(c2)CN([C@@H]2CCC(=O)NC2=O)C3=O)cc1` [A225], in assay [1], the IC50 stood at 1.3 ± 0.2 nM. In assay [2], the inhibition at 1 µM lay within 60 to 90%.

Regarding `NCC(=O)OCN1C(=O)CCC(N2Cc3cc(C(=O)NCc4ccc(CNC(=O)Cn5c6ccccc6c6cccnc65)cc4)ccc3C2=O)C1=O` (stereo not shown) [A227], the IC50 in assay [1] was 0.6 ± 0.1 nM. The inhibition at 1 µM in assay [2] lay in the range of 30 to 60%.

Consider `O=C(Cn1c2ccccc2c2cccnc21)NCc1ccc(CNC(=O)c2ccc3c(c2)CN(C2CCC(=O)N(COP(=O)(O)O)C2=O)C3=O)cc1` (stereo not shown) [A228], for which, in assay [1], the IC50 came to 5 ± 0.2 nM. The inhibition at 1 µM in assay [2] is 60 to 90%.
